Experimental data: patent US9725433B2, “Compounds as tyrosine kinase modulators” (Allergan, Inc., priority 2009, dated 2017)

Target: PDGFβ (Homo sapiens (Human), UniProt P09619)
Assay: PDGF stimulated Ca2+ signal in vitro (FLIPR, NHDF-Ad); PDGFβ cellular
Assay type: cell-based
Settings: PDGF 10 ng/mL, amide linker compounds
Description: Automated FLIPR (Fluorometric Imaging Plate Reader) technology was used to screen for inhibitors of PDGF induced increases in intracellular calcium levels in fluorescent dye loaded […] cells. NHDF-Ad (Normal human dermal fibroblasts) (Lonza) were seeded in 384-well fibronectin coated black-walled plates overnight at 37° C./5% CO2. […] Cells were washed 4 times (ELx405-CW, Bio-Tek) to remove extracellular dye.

Chain of PDGFβ (P09619 33-1106): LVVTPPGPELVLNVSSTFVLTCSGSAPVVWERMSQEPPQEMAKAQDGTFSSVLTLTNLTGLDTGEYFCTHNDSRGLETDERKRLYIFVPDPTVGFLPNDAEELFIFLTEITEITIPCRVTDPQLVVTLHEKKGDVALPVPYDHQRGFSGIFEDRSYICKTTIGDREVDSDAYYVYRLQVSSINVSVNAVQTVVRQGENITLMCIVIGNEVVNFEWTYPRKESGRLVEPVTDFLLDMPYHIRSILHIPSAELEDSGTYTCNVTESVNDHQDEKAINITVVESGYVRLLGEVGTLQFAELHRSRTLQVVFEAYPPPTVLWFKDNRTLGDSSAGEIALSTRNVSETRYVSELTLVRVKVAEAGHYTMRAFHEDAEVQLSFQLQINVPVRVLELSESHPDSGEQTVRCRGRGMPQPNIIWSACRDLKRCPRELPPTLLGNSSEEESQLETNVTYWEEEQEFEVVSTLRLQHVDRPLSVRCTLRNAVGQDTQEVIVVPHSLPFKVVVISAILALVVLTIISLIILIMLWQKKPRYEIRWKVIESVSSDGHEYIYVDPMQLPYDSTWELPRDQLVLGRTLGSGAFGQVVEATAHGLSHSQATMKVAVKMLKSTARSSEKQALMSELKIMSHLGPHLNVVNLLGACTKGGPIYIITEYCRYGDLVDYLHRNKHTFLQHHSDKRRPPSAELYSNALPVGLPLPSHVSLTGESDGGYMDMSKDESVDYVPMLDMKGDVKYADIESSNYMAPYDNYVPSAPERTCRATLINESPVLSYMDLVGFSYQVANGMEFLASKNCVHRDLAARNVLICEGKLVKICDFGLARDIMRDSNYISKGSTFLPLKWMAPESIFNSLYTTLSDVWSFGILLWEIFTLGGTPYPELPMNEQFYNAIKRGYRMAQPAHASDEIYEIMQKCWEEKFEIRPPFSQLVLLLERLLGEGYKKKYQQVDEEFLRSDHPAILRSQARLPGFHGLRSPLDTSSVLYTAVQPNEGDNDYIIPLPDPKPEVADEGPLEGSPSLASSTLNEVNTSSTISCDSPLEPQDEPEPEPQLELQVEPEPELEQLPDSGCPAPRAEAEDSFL

## 2,3-dihydroxypropyl 5-(4-{3-[(3-methyl-2-furoyl)amino]phenoxy}pyridin-2-yl)-1H-pyrrole-3-carboxylate [Example 21]
  IC50: 39 nM
